This passage reports IC50 or EC50 (agonist or antagonist mode not specified) results from US12110293B2, “Substituted triazolo quinoxaline derivatives” (GRÜNENTHAL GMBH, priority 2018, dated 2024).

The assay concerns the target T1, glucocorticoid receptor (Homo sapiens, UniProt P04150).
T1 construct: expressed in transfected cells
T1 sequence (P04150 524-758 limits assumed): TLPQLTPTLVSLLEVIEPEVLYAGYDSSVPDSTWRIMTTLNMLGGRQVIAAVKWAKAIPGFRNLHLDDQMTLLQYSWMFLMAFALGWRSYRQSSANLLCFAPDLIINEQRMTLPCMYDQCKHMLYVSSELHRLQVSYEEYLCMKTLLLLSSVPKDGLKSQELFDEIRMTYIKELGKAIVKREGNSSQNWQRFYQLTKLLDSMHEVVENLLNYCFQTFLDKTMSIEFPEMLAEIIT
Put plainly: Agonistic mode of action on the glucocorticoid receptor (CHO-Gal4/GR luciferase reporter cell line). To be noted: range class observed in the agonistic assay or the antagonistic assay (CHO-Gal4/GR reporter cells); table does not say which mode applies per example. In kind it is cell-based. In a few lines: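 CHO cells stably carrying GAL4 DBD–GR ligand-binding-domain fusion and GAL4-UAS firefly luciferase reporter, 5000 cells/well grown 24 h, then compounds added in Opti-MEM at 8 half-log concentrations from 10 μM to 0.003 μM (0.5% DMSO), quadruplicates. Agonist-induced luminescence read on FLIPR Tetra; EC50 calculated.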

Molecules are shown by their SMILES.

With `Cc1nnc2n1-c1c(cc(F)c(-c3cccc4c3cc(C(F)(F)F)n4C3CC3)c1F)NC2(C)C` [Example 312, 8-[1-Cyclopropyl-2-(trifluoromethyl)-1H-indol-4-yl]-7,9-difluoro-1,4,4-trimethyl-5H-[1,2,4]triazolo[4,3-a]quinoxaline], the IC50 or EC50 (agonist or antagonist mode not specified) lay in the range of 100 to 1000 nM.

The molecule `Cc1nnc2n1-c1c(cc(F)c(-c3cccc4c3ccn4C)c1C(F)F)NC2(C)C` [Example 481, 9-(Difluoro-methyl)-7-fluoro-1,4,4-trimethyl-8-(1-methyl-1H-indol-4-yl)-5H-[1,2,4]triazolo[4,3-a] quinoxaline] returned an IC50 or EC50 (agonist or antagonist mode not specified) of 100 to 1000 nM.

`COc1cc2c(c(C(F)(F)F)c1-c1cccc3c1ccn3CC(F)F)-n1c(C)nnc1C(C)(C)N2` [Example 500, 8-[1-(2,2-Difluoro-ethyl)-1H-indol-4-yl]-7-methoxy-1,4,4-trimethyl-9-(trifluoromethyl)-5H-[1,2,4]triazolo[4,3-a]quinoxaline] came in with an IC50 or EC50 (agonist or antagonist mode not specified) of 100 to 1000 nM.

For the molecule `Cc1nnc2n1-c1c(cc(OC(F)F)c(-c3cccc4c3cnn4C)c1F)NC2(C)C` [Example 273, 7-(Difluoro-methoxy)-9-fluoro-1,4,4-trimethyl-8-(1-methyl-1H-indazol-4-yl)-5H-[1,2,4]triazolo[4,3-a]quinoxaline], the IC50 or EC50 (agonist or antagonist mode not specified) lay within 1000 to 15000 nM.

Molecule `Cc1c[nH]c2c(-c3c(F)cc4c(c3F)-n3c(Cc5ccccc5)nnc3C(C)(C)N4)cc(F)cc12` [Example 67, 1-Benzyl-7,9-difluoro-8-(5-fluoro-3-methyl-1H-indol-7-yl)-4,4-dimethyl-5H-[1,2,4]triazolo[4,3-a]quinoxaline] displayed an IC50 or EC50 (agonist or antagonist mode not specified) of 1000 to 15000 nM.

For `COc1cc2c(c(F)c1-c1cccc3c1ccn3S(C)(=O)=O)-n1c(C)nnc1C(C)(C)N2` [Example 263, 9-Fluoro-7-methoxy-1,4,4-trimethyl-8-(1-methylsulfonyl-1H-indol-4-yl)-5H-[1,2,4]triazolo[4,3-a]quinoxaline], the IC50 or EC50 (agonist or antagonist mode not specified) was 1000 to 15000 nM.

In turn, `CC#Cc1c[nH]c2c(-c3c(F)cc4c(c3C)-n3c(CO)nnc3C(C)(C)N4)cc(F)cc12` [Example 77, (7-fluoro-8-(5-fluoro-3-(prop-1-yn-1-yl)-1H-indol-7-yl)-4,4,9-trimethyl-4,5-dihydro-[1,2,4]triazolo[4,3-a]quinoxalin-1-yl)methanol] displayed an IC50 or EC50 (agonist or antagonist mode not specified) of 100 to 1000 nM.

As for `Cc1c[nH]c2c(-c3c(OC(F)F)cc4c(c3F)-n3c(C)nnc3C(C)(C)N4)cc(F)cc12` [Example 267, 7-(Difluoro-methoxy)-9-fluoro-8-(5-fluoro-3-methyl-1H-indol-7-yl)-1,4,4-trimethyl-5H-[1,2,4]triazolo[4,3-a]quinoxaline], the IC50 or EC50 (agonist or antagonist mode not specified) lay within 100 to 1000 nM.

With `Cc1c(-c2cc(F)cc3c(C)c[nH]c23)c(OC(F)(F)F)cc2c1-n1c(C)nnc1C(C)(C)N2` [Example 458, 8-(5-Fluoro-3-methyl-1H-indol-7-yl)-1,4,4,9-tetramethyl-7-(trifluoromethyloxy)-5H-[1,2,4]triazolo[4,3-a]quinoxaline], the IC50 or EC50 (agonist or antagonist mode not specified) was in the range of 100 to 1000 nM.

The molecule `Cc1cc2c(c(C)c1-c1cc(F)cc3c1ccn3S(C)(=O)=O)-n1c(C)nnc1C(C)(C)N2` [Example 328, 8-(6-Fluoro-1-methylsulfonyl-1H-indol-4-yl)-1,4,4,7,9-pentamethyl-5H-[1,2,4]triazolo[4,3-a]quinoxaline] registered an IC50 or EC50 (agonist or antagonist mode not specified) of 100 to 1000 nM.

In turn, `Cc1nnc2n1-c1c(cc(F)c(-c3cccc4c3ccn4S(C)(=O)=O)c1C1CC1)NC2(C)C` [Example 462, 9-Cyclopropyl-7-fluoro-1,4,4-trimethyl-8-(1-methylsulfonyl-1H-indol-4-yl)-5H-[1,2,4]triazolo [4,3-a]quinoxaline] showed an IC50 or EC50 (agonist or antagonist mode not specified) of under 100 nM.

In the case of `Cc1nnc2n1-c1c(cc(F)c(-c3cccc4c3ccn4S(C)(=O)=O)c1F)NC2(C)C` [Example 22, 7,9-difluoro-1,4,4-trimethyl-8-(1-(methylsulfonyl)-1H-indol-4-yl)-4,5-dihydro-[1,2,4]triazolo[4,3-a]quinoxaline], the IC50 or EC50 (agonist or antagonist mode not specified) lay within 100 to 1000 nM.

`CCS(=O)(=O)n1ccc2c(-c3c(OC)cc4c(c3C(F)(F)F)-n3c(C)nnc3C(C)(C)N4)cccc21` [Example 371, 8-[1-(Ethylsulfonyl)-1H-indol-4-yl]-7-methoxy-1,4,4-trimethyl-9-(trifluoromethyl)-5H-[1,2,4]triazolo[4,3-a]quinoxaline] gave an IC50 or EC50 (agonist or antagonist mode not specified) of 100 to 1000 nM.

With `Cc1c[nH]c2c(-c3c(C(F)F)cc4c(c3F)-n3c(C)nnc3C(C)(C)N4)cc(F)cc12` [Example 296, 7-(Difluoro-methyl)-9-fluoro-8-(5-fluoro-3-methyl-1H-indol-7-yl)-1,4,4-trimethyl-5H-[1,2,4]triazolo[4,3-a]quinoxaline], the IC50 or EC50 (agonist or antagonist mode not specified) is 100 to 1000 nM.

Regarding `Cc1c(-c2cc(C(F)(F)F)cc3[nH]ccc23)c(F)cc2c1-n1c(C)nnc1C(C)(C)N2` [Example 470, 7-Fluoro-1,4,4,9-tetramethyl-8-[6-(trifluoromethyl)-1H-indol-4-yl]-5H-[1,2,4]triazolo[4,3-a]quinoxaline], the IC50 or EC50 (agonist or antagonist mode not specified) lay in the range of 100 to 1000 nM.

As for `Cc1nnc2n1-c1c(cc(F)c(-c3cccc4c3ccn4C3CC3)c1C(F)F)NC2(C)C` [Example 514, 8-(1-Cyclopropyl-1H-indol-4-yl)-9-(difluoro-methyl)-7-fluoro-1,4,4-trimethyl-5H-[1,2,4]triazolo[4,3-a]quinoxaline], the IC50 or EC50 (agonist or antagonist mode not specified) was 100 to 1000 nM.

`Cc1nnc2n1-c1c(ccc(-c3cccc4c3ccn4S(C)(=O)=O)c1C(F)(F)F)NC2(C)C` [Example 498, 1,4,4-Trimethyl-8-(1-methylsulfonyl-1H-indol-4-yl)-9-(trifluoromethyl)-5H-[1,2,4]triazolo[4,3-a]quinoxaline] came in with an IC50 or EC50 (agonist or antagonist mode not specified) of 100 to 1000 nM.

In turn, `Cc1nnc2n1-c1c(cc(F)c(-c3c(F)ccc4c3ccn4S(C)(=O)=O)c1F)NC2(C)C` [Example 224, 7,9-Difluoro-8-(5-fluoro-1-methylsulfonyl-1H-indol-4-yl)-1,4,4-trimethyl-5H-[1,2,4]triazolo[4,3-a]quinoxaline] showed an IC50 or EC50 (agonist or antagonist mode not specified) of 100 to 1000 nM.

`COCCn1ncc2c(-c3c(OC(F)(F)F)cc4c(c3C)-n3c(C)nnc3C(C)(C)N4)cc(F)cc21` [Example 480, 8-[6-Fluoro-1-(2-methoxy-ethyl)-1H-indazol-4-yl]-1,4,4,9-tetramethyl-7-(trifluoromethyloxy)-5H-[1,2,4]triazolo[4,3-a]quinoxaline]: the IC50 or EC50 (agonist or antagonist mode not specified) was 100 to 1000 nM.

Turning to `Cc1nnc2n1-c1c(cc(F)c(-c3cc(F)cc4c3cnn4CC(F)F)c1F)NC2(C)C` [Example 489, 8-[1-(2,2-Difluoro-ethyl)-6-fluoro-1H-indazol-4-yl]-7,9-difluoro-1,4,4-trimethyl-5H-[1,2,4]triazolo [4,3-a]quinoxaline], the IC50 or EC50 (agonist or antagonist mode not specified) was under 100 nM.

`Cc1nnc2n1-c1c(cc(C(F)F)c(-c3cc(F)cc4c3ccn4CCO)c1F)NC2(C)C` [Example 385, 2-[4-[7-(Difluoro-methyl)-9-fluoro-1,4,4-trimethyl-5H-[1,2,4]triazolo [4,3-a]quinoxalin-8-yl]-6-fluoro-1H-indol-1-yl]-ethanol] showed an IC50 or EC50 (agonist or antagonist mode not specified) of 1000 to 15000 nM.

Turning to `CCc1nnc2n1-c1c(cc(F)c(-c3cc(F)cc4c3ccn4CC3CC3)c1C)NC2(C)C` [Example 35, 8-(1-(cyclopropylmethyl)-6-fluoro-1H-indol-4-yl)-1-ethyl-7-fluoro-4,4,9-trimethyl-4,5-dihydro-[1,2,4]triazolo[4,3-a]quinoxaline], the IC50 or EC50 (agonist or antagonist mode not specified) was 100 to 1000 nM.

`COc1cc2c(c(C(F)(F)F)c1-c1cc(F)cc3c1ccn3C)-n1c(C)nnc1C(C)(C)N2` [Example 517, 8-(6-Fluoro-1-methyl-1H-indol-4-yl)-7-methoxy-1,4,4-trimethyl-9-(trifluoromethyl)-5H-[1,2,4]triazolo [4,3-a]quinoxaline] yielded an IC50 or EC50 (agonist or antagonist mode not specified) of 100 to 1000 nM.

The molecule `Cc1c(-c2cc(Cl)cc3[nH]ccc23)c(F)cc2c1-n1c(C)nnc1C(C)(C)N2` [Example 513, 8-(6-Chloro-1H-indol-4-yl)-7-fluoro-1,4,4,9-tetramethyl-5H-[1,2,4]triazolo[4,3-a]quinoxaline] yielded an IC50 or EC50 (agonist or antagonist mode not specified) of 100 to 1000 nM.

Take `Cc1c[nH]c2c(-c3c(F)cc4c(c3F)-n3c(Cc5ccccn5)nnc3C(C)(C)N4)cccc12` [Example 75, 7,9-Difluoro-4,4-dimethyl-8-(3-methyl-1H-indol-7-yl)-1-(pyridin-2-yl-methyl)-5H-[1,2,4]triazolo[4,3-a]quinoxaline]: the IC50 or EC50 (agonist or antagonist mode not specified) was under 100 nM.

On to `Cc1nnc2n1-c1c(cc(F)c(-c3ccc(F)c4c3ccn4S(C)(=O)=O)c1C(F)(F)F)NC2(C)C` [Example 484, 7-Fluoro-8-(7-fluoro-1-methyl-sulfonyl-1H-indol-4-yl)-1,4,4-trimethyl-9-(trifluoromethyl)-5H-[1,2,4]triazolo[4,3-a]quinoxaline], for which the IC50 or EC50 (agonist or antagonist mode not specified) lay in the range of 100 to 1000 nM.

`Cc1nnc2n1-c1c(cc(F)c(-c3cc(F)cc4c3ccn4C3CC3)c1F)NC2(C)C` [Example 2, 8-(1-cyclopropyl-6-fluoro-1H-indol-4-yl)-7,9-difluoro-1,4,4-trimethyl-4,5-dihydro-[1,2,4]triazolo[4,3-a]quinoxaline] registered an IC50 or EC50 (agonist or antagonist mode not specified) of under 100 nM.

`CCc1nnc2n1-c1c(cc(F)c(-c3cccc4c3cnn4C)c1C)NC2(C)C` [Example 240, 1-Ethyl-7-fluoro-4,4,9-trimethyl-8-(1-methyl-1H-indazol-4-yl)-5H-[1,2,4]triazolo[4,3-a]quinoxaline]: the IC50 or EC50 (agonist or antagonist mode not specified) fell in the range of 1000 to 15000 nM.
